The target of test [1] is T1, rabbit muscle lactate dehydrogenase (rbLDH, LDH-A) (Oryctolagus cuniculus, UniProt P13491).
T1 construct: gene LDHA; tetrameric enzyme from rabbit skeletal muscle
As to the kind of experiment: stopped-flow tryptophan fluorescence quenching of the rbLDH•β-NADH complex. Format: binding.

The target of test [2] is T1, rabbit muscle lactate dehydrogenase (rbLDH, LDH-A). As to the kind of experiment: stopped-flow tryptophan fluorescence quenching (FRET), association and dissociation kinetics. Format: binding. As to conditions: read-out: stopped-flow tryptophan fluorescence quenching (FRET), association and dissociat.

The values that follow come from article PMC12432435, “Not only an inhibitor: Trehalose enhances the catalytic action exerted on oxaloacetate by rabbit lactate dehydrogenase” (Protein Science : A Publication of the Protein Society, 2025).

With `NC(=O)C(=O)O` [oxamate], the “Control / k obs” value in test [1] was 642 ± 19 s⁻¹.

For the molecule `NC(=O)C1=CN([C@@H]2O[C@H](COP(=O)(O)OP(=O)(O)OC[C@H]3O[C@@H](n4cnc5c(N)ncnc54)[C@H](O)[C@@H]3O)[C@@H](O)[C@H]2O)C=CC1` [β-NADH], the kon in test [2] is 1.17e+08 M⁻¹ s⁻¹.
